Source: the NIST ThermoML archive (doi:10.1016/j.fluid.2010.07.005)

Experiments:
[1] = molar heat capacity at constant pressure; xn = mol fraction of the nth substance listed; conditions: 101.33 kPa, Liquid, Vacuum adiabatic calorimetry
[2] = xn = mol fraction of the nth substance listed; conditions: 101.33 kPa, Liquid; for viscosity: Capillary tube (Ostwald / Ubbelohde) method
[3] = excess molar enthalpy (molar enthalpy of mixing); xn = mol fraction of the nth substance listed; conditions: 298.15 K, 101.33 kPa, Liquid, Flow calorimetry

COP(=O)([O-])OC.Cn1cc[n+](C)c1 [1,3-dimethylimidazolium dimethylphosphate] + CCO
Conditions	molar heat capacity at constant pressure, 298.15 K [J/K/mol]	molar heat capacity at constant pressure, 303.15 K [J/K/mol]	molar heat capacity at constant pressure, 313.15 K [J/K/mol]	molar heat capacity at constant pressure, 323.15 K [J/K/mol]	viscosity, 298.15 K [mPa·s]	viscosity, 303.15 K [mPa·s]	viscosity, 308.15 K [mPa·s]	viscosity, 313.15 K [mPa·s]	viscosity, 318.15 K [mPa·s]	viscosity, 323.15 K [mPa·s]
[1], x1 = 0.224	145.29	153.59	172.15	190.19	–	–	–	–	–	–
[1], x1 = 0.408	193.74	205.3	227.82	247.28	–	–	–	–	–	–
[1], x1 = 0.596	235.91	247.99	280.92	299.34	–	–	–	–	–	–
[1], x1 = 0.803	258.54	267.73	289.85	304.85	–	–	–	–	–	–
[1], x1 = 1	282.83	296.61	310.83	321.05	–	–	–	–	–	–
[2], x1 = 0.202	–	–	–	–	6.83	5.98	5.3	4.83	4.32	3.94
[2], x1 = 0.414	–	–	–	–	22.99	19	16.21	14.15	12.35	11.03
[2], x1 = 0.562	–	–	–	–	48.76	38.45	30.8	26.47	22.23	19.27
[2], x1 = 0.807	–	–	–	–	137.88	105.91	80.22	63.76	50.57	42.11
[2], x1 = 1	–	–	–	–	271.86	188.3	139.49	110.25	84.44	69.99

mass density [kg/m3], [2], Specific gravity balance
Conditions	298.15 K	303.15 K	308.15 K	313.15 K	318.15 K	323.15 K
x1 = 0.202	1000.6	996.6	992.7	989.7	986.9	983.2
x1 = 0.414	1116.5	1113.4	1109.8	1106.6	1103.5	1098.4
x1 = 0.562	1166.7	1163.4	1159.7	1156.2	1152.4	1148.5
x1 = 0.807	1223.2	1219.5	1216.8	1213.8	1211.4	1207.5
x1 = 1	1258.7	1255.9	1253	1249.1	1245.2	1241.5

[3]
Conditions	excess molar enthalpy [kJ/mol]
x1 = 0.177	-1.38
x1 = 0.307	-2.01
x1 = 0.524	-2.03
x1 = 0.665	-1.58
x1 = 0.8	-1.01
x1 = 1	0

COP(=O)([O-])OC.Cn1cc[n+](C)c1 [1,3-dimethylimidazolium dimethylphosphate] + CO
Conditions	molar heat capacity at constant pressure, 298.15 K [J/K/mol]	molar heat capacity at constant pressure, 303.15 K [J/K/mol]	molar heat capacity at constant pressure, 313.15 K [J/K/mol]	molar heat capacity at constant pressure, 323.15 K [J/K/mol]	viscosity, 298.15 K [mPa·s]	viscosity, 303.15 K [mPa·s]	viscosity, 308.15 K [mPa·s]	viscosity, 313.15 K [mPa·s]	viscosity, 318.15 K [mPa·s]	viscosity, 323.15 K [mPa·s]
[1], x1 = 0.202	130.82	144.77	169.01	190.07	–	–	–	–	–	–
[1], x1 = 0.399	177.61	191.43	214.09	233.4	–	–	–	–	–	–
[1], x1 = 0.591	215.46	225.28	246.8	262.54	–	–	–	–	–	–
[1], x1 = 0.81	256.75	261.78	274.8	290.24	–	–	–	–	–	–
[1], x1 = 1	282.83	296.61	310.83	321.05	–	–	–	–	–	–
[2], x1 = 0.203	–	–	–	–	3.8	3.32	3.06	2.84	2.6	2.4
[2], x1 = 0.399	–	–	–	–	18.33	16.56	12.43	11.08	9.76	8.79
[2], x1 = 0.603	–	–	–	–	53.9	38.18	31.37	25.8	22.86	18.45
[2], x1 = 0.805	–	–	–	–	145.63	98.68	75.4	61.57	49.9	40.2
[2], x1 = 1	–	–	–	–	271.86	188.3	139.49	110.25	84.44	69.99

mass density [kg/m3], [2], Specific gravity balance
Conditions	298.15 K	303.15 K	308.15 K	313.15 K	318.15 K	323.15 K
x1 = 0.203	1040.2	1037.1	1033.2	1030.2	1027.6	1025.1
x1 = 0.399	1158.3	1155.2	1151.2	1148.1	1147	1140.1
x1 = 0.603	1205.5	1201.4	1197.8	1194.1	1190.8	1188
x1 = 0.805	1236.4	1233	1229.7	1226.4	1223.1	1219.8
x1 = 1	1258.7	1255.9	1253	1249.1	1245.2	1241.5

[3]
Conditions	excess molar enthalpy [kJ/mol]
x1 = 0.165	-2.26
x1 = 0.28	-3.26
x1 = 0.466	-3.28
x1 = 0.593	-2.87
x1 = 0.744	-1.99
x1 = 1	0

COP(=O)([O-])OC.Cn1cc[n+](C)c1 [1,3-dimethylimidazolium dimethylphosphate] + O
Conditions	molar heat capacity at constant pressure, 298.15 K [J/K/mol]	molar heat capacity at constant pressure, 303.15 K [J/K/mol]	molar heat capacity at constant pressure, 313.15 K [J/K/mol]	molar heat capacity at constant pressure, 323.15 K [J/K/mol]	viscosity, 298.15 K [mPa·s]	viscosity, 303.15 K [mPa·s]	viscosity, 308.15 K [mPa·s]	viscosity, 313.15 K [mPa·s]	viscosity, 318.15 K [mPa·s]	viscosity, 323.15 K [mPa·s]
[1], x1 = 0.21	116.48	124.21	147.96	171.34	–	–	–	–	–	–
[1], x1 = 0.375	143.19	151.23	167.21	182.63	–	–	–	–	–	–
[1], x1 = 0.57	197.42	205.75	220.8	232.9	–	–	–	–	–	–
[1], x1 = 0.821	255.8	267.68	284.76	298.31	–	–	–	–	–	–
[1], x1 = 1	282.83	296.61	310.83	321.05	–	–	–	–	–	–
[2], x1 = 0.252	–	–	–	–	40.02	32.61	24.46	20.28	16.97	14.5
[2], x1 = 0.428	–	–	–	–	74.43	55.22	43.51	35.23	27.92	23.63
[2], x1 = 0.617	–	–	–	–	145.21	110.23	82.04	66.13	51.66	41.92
[2], x1 = 0.795	–	–	–	–	197.92	138.81	104.59	80.27	63.01	50.35
[2], x1 = 1	–	–	–	–	271.86	188.3	139.49	110.25	84.44	69.99

mass density [kg/m3], [2], Speicific gravity balance
Conditions	298.15 K	303.15 K	308.15 K	313.15 K	318.15 K	323.15 K
x1 = 0.252	1233.4	1231	1227.9	1224	1220.8	1216.8
x1 = 0.428	1241.5	1239.4	1236.2	1233.6	1230.5	1226.2
x1 = 0.617	1248.5	1245.8	1241.8	1239.3	1236.1	1232.9
x1 = 0.795	1253.6	1250.5	1247.2	1243.9	1241.1	1236.8
x1 = 1	1258.7	1255.9	1253	1249.1	1245.2	1241.5

[3]
Conditions	excess molar enthalpy [kJ/mol]
x1 = 0.104	-4.7
x1 = 0.209	-5.92
x1 = 0.369	-6.43
x1 = 0.498	-6.05
x1 = 0.604	-5.37
x1 = 1	0
